Laboratory results reported in ChEMBL document CHEMBL5380857, “Discovery of Potent, Selective, and Orally Bioavailable Small-Molecule Inhibitors of CDK8 for the Treatment of Cancer” (J Med Chem, 2023).
Activity calls are given as the source filed them. The rule behind the calls is not given here.

How the values were obtained:
CDK8/Cyclin C = CDK8/Cyclin C (Homo sapiens, UniProt P49336); test: Inhibition of His tagged human recombinant CDK8/Cyclin C expressed in baculovirus expression system incubated for 15 mins by FRET-based LanthaScreen binding competition assay
Sequence of CDK8/Cyclin C (P49336 whole entry): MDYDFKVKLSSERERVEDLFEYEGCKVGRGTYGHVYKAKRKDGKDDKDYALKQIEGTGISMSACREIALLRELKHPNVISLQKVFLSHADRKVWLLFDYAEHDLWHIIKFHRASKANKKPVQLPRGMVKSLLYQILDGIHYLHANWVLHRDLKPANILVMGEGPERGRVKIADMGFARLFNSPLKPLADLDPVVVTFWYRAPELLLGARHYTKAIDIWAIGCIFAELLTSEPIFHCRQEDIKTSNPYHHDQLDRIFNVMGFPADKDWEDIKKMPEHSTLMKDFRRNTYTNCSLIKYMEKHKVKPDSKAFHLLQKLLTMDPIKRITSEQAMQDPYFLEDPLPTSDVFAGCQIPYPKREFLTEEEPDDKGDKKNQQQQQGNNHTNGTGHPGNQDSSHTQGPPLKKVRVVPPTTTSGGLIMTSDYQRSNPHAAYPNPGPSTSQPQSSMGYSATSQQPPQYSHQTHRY
Sequence of CDK8/Cyclin C (P24863 whole entry, further chain): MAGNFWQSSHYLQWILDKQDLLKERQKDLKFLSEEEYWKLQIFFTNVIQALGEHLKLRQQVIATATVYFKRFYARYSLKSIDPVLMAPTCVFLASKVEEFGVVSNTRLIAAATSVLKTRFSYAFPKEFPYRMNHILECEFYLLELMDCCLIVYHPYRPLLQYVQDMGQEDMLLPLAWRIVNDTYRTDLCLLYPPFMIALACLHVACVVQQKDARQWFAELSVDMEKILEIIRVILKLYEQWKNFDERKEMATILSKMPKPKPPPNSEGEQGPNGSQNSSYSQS

[1] = Metabolic stability in mouse liver microsomes assessed as intrinsic clearance at 1 uM preincubated for 10 mins followed by NADPH addition and measured for 60 mins by LC-MS/MS analysis; assay type: ADME, Microsome; conditions: read-out: CLH
[2] = Metabolic stability in human liver microsomes assessed as intrinsic clearance at 1 uM preincubated for 10 mins followed by NADPH addition and measured for 60 mins by LC-MS/MS analysis; assay type: ADME, Microsome; conditions: read-out: CLH
[3] = Volume of distribution in CD-1 mouse at 5 mg/kg, po or 1 mg/kg, iv administered as single dose and measured for 24 hrs by LC-MS/MS analysis; assay type: ADME, organism-based; conditions: in vivo
[4] = Bioavailability in CD-1 mouse at 5 mg/kg, po or 1 mg/kg, iv administered as single dose and measured for 24 hrs by LC-MS/MS analysis; assay type: ADME, organism-based; conditions: in vivo
[5] = target: Dual specificity protein kinase CLK2 (Homo sapiens, UniProt P49760); test: Binding affinity to CLK2 (unknown origin) assessed as dissociation constant by competitive binding assay
Sequence of Dual specificity protein kinase CLK2 (P49760 whole entry): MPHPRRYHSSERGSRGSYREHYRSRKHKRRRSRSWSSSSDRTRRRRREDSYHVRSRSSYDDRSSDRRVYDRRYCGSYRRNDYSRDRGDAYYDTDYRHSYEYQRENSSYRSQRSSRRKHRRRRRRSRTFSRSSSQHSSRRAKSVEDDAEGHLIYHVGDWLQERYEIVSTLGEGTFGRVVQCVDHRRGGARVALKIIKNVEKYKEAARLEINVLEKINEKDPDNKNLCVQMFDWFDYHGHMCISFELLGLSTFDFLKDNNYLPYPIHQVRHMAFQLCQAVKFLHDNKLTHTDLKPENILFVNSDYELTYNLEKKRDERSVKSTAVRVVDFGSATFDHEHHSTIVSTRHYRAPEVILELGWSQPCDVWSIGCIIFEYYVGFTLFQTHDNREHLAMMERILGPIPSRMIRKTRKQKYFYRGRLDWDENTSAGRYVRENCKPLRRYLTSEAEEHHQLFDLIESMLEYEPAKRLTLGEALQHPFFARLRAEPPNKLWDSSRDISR

[6] = target: T1, Serine/threonine-protein kinase LATS2 (Homo sapiens, UniProt Q9NRM7); test: Binding affinity to LATS2 (unknown origin) assessed as dissociation constant by competitive binding assay
T1 sequence (Q9NRM7 whole entry): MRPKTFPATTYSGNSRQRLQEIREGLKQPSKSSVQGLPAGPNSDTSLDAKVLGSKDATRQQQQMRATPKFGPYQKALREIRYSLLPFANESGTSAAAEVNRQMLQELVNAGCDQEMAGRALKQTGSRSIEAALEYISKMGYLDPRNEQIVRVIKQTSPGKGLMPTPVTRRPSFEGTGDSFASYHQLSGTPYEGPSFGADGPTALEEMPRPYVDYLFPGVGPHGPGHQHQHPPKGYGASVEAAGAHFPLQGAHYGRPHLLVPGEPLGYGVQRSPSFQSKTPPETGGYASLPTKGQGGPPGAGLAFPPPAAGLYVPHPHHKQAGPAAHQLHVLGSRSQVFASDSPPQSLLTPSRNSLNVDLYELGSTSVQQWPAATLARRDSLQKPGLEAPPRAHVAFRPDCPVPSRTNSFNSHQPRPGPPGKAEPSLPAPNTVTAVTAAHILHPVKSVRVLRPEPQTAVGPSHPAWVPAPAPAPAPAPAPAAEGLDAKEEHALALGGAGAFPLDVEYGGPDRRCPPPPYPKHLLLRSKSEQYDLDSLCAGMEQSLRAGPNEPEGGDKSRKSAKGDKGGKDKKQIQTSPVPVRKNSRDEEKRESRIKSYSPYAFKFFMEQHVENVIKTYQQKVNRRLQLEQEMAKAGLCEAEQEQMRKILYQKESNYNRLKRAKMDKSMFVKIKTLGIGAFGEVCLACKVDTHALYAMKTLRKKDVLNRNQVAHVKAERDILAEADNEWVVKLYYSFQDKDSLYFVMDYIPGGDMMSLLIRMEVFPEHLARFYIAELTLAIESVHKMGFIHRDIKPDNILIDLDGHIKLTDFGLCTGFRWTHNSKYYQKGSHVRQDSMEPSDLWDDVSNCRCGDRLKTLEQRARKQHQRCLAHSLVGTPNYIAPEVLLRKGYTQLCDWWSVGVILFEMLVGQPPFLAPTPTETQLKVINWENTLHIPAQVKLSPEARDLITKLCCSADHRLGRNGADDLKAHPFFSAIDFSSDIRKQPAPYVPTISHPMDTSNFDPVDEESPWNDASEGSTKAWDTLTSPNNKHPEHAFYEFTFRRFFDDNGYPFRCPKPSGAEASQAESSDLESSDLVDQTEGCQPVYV

[7] = target: Phosphatidylinositol 3-kinase catalytic subunit type 3 (Homo sapiens, UniProt Q8NEB9); test: Binding affinity to VPS34 (unknown origin) assessed as dissociation constant by competitive binding assay
Sequence of Phosphatidylinositol 3-kinase catalytic subunit type 3 (Q8NEB9 whole entry): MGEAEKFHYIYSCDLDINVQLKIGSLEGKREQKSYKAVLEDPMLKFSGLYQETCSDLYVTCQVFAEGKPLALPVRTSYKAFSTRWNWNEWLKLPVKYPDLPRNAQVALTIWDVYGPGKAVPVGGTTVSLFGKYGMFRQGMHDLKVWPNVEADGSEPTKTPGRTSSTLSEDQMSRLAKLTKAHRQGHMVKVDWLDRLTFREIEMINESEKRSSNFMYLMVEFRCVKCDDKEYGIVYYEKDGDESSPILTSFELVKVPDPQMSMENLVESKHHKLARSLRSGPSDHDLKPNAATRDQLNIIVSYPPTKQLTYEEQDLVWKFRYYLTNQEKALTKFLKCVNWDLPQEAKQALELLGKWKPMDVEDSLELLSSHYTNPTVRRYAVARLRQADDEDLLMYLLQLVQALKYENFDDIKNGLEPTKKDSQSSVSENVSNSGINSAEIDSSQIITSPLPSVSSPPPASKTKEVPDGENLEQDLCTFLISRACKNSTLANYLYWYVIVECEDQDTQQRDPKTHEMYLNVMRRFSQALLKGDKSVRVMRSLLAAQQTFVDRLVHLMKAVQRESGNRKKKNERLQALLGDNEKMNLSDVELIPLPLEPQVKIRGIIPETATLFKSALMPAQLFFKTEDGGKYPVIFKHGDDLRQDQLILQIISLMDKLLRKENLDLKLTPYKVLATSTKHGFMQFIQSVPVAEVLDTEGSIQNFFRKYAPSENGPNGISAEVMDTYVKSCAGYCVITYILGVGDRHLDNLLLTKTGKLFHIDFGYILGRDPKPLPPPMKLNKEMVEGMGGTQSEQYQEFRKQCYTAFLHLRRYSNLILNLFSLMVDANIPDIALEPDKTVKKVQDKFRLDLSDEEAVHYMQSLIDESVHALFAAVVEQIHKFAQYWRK

[8] = target: Cyclin-dependent kinase 19 (Homo sapiens, UniProt Q9BWU1); test: Inhibition of CDK19 (unknown origin)
Sequence of Cyclin-dependent kinase 19 (Q9BWU1 whole entry): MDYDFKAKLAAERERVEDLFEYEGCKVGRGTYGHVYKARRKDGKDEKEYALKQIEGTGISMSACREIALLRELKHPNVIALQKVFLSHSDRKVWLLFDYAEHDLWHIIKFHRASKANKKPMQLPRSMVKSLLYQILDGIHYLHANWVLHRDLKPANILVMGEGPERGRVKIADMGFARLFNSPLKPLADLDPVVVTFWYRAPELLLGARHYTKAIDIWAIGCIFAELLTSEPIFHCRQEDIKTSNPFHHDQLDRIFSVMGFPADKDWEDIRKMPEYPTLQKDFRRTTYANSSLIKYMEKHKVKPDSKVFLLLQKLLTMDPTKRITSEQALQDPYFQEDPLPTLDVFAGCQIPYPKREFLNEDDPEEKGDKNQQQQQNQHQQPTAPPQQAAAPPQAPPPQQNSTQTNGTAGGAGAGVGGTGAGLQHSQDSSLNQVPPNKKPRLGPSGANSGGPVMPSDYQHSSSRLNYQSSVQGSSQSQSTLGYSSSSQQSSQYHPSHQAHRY

MV4-11 [9] = test: Induction of cell cycle arrest in human MV4-11 cells assessed as reduction in accumulation of cells at S phase at 0.01 to 1 uM incubated for 48 hrs; assay type: functional, cell-based; conditions: dose 0.01-1 µM
MV4-11 [10] = test: Induction of cell cycle arrest in human MV4-11 cells assessed as reduction in accumulation of cells at G2/M phase at 0.01 to 1 uM incubated for 48 hrs; assay type: functional, cell-based; conditions: dose 0.01-1 µM
[11] = Bioavailability in Sprague-Dawley rat at 5 mg/kg, po or 1 mg/kg, iv administered as single dose and measured for 24 hrs by LC-MS/MS analysis; assay type: ADME, organism-based; conditions: in vivo
[12] = Half life in Sprague-Dawley rat at 5 mg/kg, po or 1 mg/kg, iv administered as single dose and measured for 24 hrs by LC-MS/MS analysis; assay type: ADME, organism-based; conditions: in vivo
[13] = Clearance in Beagle dog assessed as liver blood flow at 1 mg/kg, po or 0.5 mg/kg, iv administered as single dose and measured for 24 hrs by LC-MS/MS analysis; assay type: ADME, organism-based, Canis lupus familiaris; conditions: in vivo
[14] = Volume of distribution in Beagle dog at 1 mg/kg, po or 0.5 mg/kg, iv administered as single dose and measured for 24 hrs by LC-MS/MS analysis; assay type: ADME, organism-based, Canis lupus familiaris; conditions: in vivo
[15] = Cytotoxicity against HEK293 cells; assay type: toxicity, cell-based; conditions: human
Cytochrome P450 3A4 = Cytochrome P450 3A4 (Homo sapiens, UniProt P08684); test: Inhibition of CYP3A4 in human liver microsomes using midazolam as substrate assessed as reduction in substrate hydroxylation incubated for 10 mins in presence of NADPH by LC-MS/MS analysis; assay type: ADME, Microsome
Sequence of Cytochrome P450 3A4 (P08684 whole entry): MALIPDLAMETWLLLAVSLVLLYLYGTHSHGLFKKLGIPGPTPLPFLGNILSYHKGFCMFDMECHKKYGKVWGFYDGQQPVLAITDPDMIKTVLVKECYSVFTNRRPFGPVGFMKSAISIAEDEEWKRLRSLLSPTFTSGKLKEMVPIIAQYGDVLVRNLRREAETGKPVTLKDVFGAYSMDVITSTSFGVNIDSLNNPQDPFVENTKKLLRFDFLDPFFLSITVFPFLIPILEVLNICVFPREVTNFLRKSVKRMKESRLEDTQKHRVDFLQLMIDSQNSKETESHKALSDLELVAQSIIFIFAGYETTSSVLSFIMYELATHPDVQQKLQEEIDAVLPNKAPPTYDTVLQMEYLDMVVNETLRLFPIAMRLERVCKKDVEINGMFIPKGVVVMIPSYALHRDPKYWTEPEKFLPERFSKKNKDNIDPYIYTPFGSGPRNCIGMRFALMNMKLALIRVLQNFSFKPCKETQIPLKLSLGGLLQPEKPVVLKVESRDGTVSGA

Cytochrome P450 2C9 = Cytochrome P450 2C9 (Homo sapiens, UniProt P11712); test: Inhibition of CYP2C9 in human liver microsomes using diclofenac as substrate assessed as reduction in substrate hydroxylation incubated for 10 mins in presence of NADPH by LC-MS/MS analysis; assay type: ADME, Microsome
Sequence of Cytochrome P450 2C9 (P11712 whole entry): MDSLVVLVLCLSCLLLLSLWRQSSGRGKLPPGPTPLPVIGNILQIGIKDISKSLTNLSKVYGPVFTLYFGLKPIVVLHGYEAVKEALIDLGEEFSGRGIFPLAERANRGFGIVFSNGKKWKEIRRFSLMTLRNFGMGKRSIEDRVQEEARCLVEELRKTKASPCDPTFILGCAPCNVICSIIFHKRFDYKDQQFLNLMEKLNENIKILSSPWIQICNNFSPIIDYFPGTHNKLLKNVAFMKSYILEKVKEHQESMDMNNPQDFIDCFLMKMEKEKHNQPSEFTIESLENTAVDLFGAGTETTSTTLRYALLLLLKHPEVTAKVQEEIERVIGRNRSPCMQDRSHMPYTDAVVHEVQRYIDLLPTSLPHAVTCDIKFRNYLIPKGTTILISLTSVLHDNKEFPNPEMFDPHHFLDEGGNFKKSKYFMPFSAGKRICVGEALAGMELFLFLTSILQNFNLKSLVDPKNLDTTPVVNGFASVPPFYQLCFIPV

MV4-11 [16] = test: Antitumor activity against human MV4-11 cells xenografted in BALB/c nude mouse assessed as inhibition of tumor growth administered orally by gavage twice per day for 17 days and measured 3 times per week by caliper method; assay type: functional, cell-based; conditions: dose 1-10 mg/kg, route po, time 17.0 day
Mus musculus = test: In vivo inhibition of STAT1 phosphorylation at S727 residue in BALB/c nude mouse xenografted with human MV4-11 cells assessed as reduction in p-STAT1 protein level administered orally by gavage twice per day for 17 days and measured 24 hrs post last dose by Western blot analysis; assay type: functional, organism-based; conditions: dose 1-10 mg/kg, route po, time 17.0 day
MC-38 = test: (§1) Antitumor activity against mouse MC-38 cells implanted in C57BL/6J syngeneic mouse model assessed as tumor growth inhibition at 3 mg/kg, po administered via gavage once daily for 21 days in presence of mPDL1 antibody administered twice per week and measured 3 times a week by caliper method relative to control; assay type: functional; conditions: MC-38, 504 h, time 21 day, read-out: TGI
[17] = as §1, with “mouse LL2” for “mouse MC-38”, “at 1” for “at 3”, “gavage twice” for “gavage once”, “for 14” for “for 21”; assay type: functional; conditions: Lewis lung carcinoma, 336 h, time 14 day, read-out: TGI
[18] = target: Glycogen synthase kinase-3 beta (Homo sapiens, UniProt P49841)
Sequence of Glycogen synthase kinase-3 beta (P49841 whole entry): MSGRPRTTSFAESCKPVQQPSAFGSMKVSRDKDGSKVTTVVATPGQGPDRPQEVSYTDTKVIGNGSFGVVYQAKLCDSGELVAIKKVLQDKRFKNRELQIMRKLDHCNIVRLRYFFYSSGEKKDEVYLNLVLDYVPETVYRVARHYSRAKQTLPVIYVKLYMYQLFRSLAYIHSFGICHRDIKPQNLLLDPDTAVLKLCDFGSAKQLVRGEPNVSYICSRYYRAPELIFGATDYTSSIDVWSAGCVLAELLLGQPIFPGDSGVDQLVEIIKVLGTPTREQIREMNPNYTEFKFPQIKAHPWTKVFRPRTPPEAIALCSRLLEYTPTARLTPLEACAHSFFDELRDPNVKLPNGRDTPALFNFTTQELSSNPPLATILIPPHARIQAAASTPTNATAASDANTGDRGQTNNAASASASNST
Description: Binding affinity to GSK3B (unknown origin) assessed as dissociation constant by competitive binding assay

IC50 (CDK8/Cyclin C): 0.7 nM | CLint scaled at 1 µM [1]: 148 mL/min/kg | CLint scaled at 1 µM [2]: < 8.6 mL/min/kg | Vd [3]: 0.4 L/kg | bioavailability [4]: 87.4% | Kd [5]: 68 nM | Kd [6]: 250 nM | Kd [7]: 4200 nM | IC50 [8]: 2 nM | bioavailability [11]: 97.7% | half-life [12]: 3.9 h | LBF [13]: 7.2% | Vd [14]: 0.5 L/kg | IC50 (Cytochrome P450 3A4): > 50000 nM | IC50 (Cytochrome P450 2C9): 11400 nM | Kd [18]: 210 nM
Compound: Cc1n[nH]c2ccc(-c3nnc(C)n3Cc3ccc(C(F)(F)F)cc3)cc12
Activity (MV4-11 [9]): Active | Activity (MV4-11 [10]): Active | EC50 [15]: > 10000 nM | inhibition (MV4-11 [16]): Dose-Dependent Effect | inhibition (Mus musculus): Dose-Dependent Effect | inhibition in vivo at 3 mg/kg (MC-38): 80.4% | inhibition in vivo at 1 mg/kg [17]: 46.1%
